Measured values as given in PubChem BioAssay AID2060333 (Molecular Pharmacology Branch, DTP, NCI, 2025).
pIC50: −log10 of the molar value.

Test system: 845751-090-R-J2-PDC tumor spheroid viability
Test: Anticancer human tumor 845751-090-R-J2-PDC patient-derived head and neck squamous carcinoma cell line growth inhibition [IpAb]
Details: spheroids with HUVEC and MSC; for pIC50: curve of first compound; for viability, T/C: stronger effect = lower value
Method in brief: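 Spheroids of 60% malignant cells, 25% HUVEC and 15% MSC were exposed to targeted agents combined with ipatasertib or abemaciclib. Doses started at or near clinical Cmax (10 microM when unknown) and fell in half-log steps.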

[1] = second compound 0.1 µM, first compound 0.0316 µM
[2] = second compound 0.1 µM, first compound 0.1 µM
[3] = second compound 0.1 µM, first compound 0.316 µM
[4] = second compound 0.1 µM, first compound 1 µM
[5] = second compound 0.1 µM, first compound 3.16 µM
[6] = second compound 0.1 µM, first compound 10 µM
[7] = second compound 0.316 µM, first compound 0.0316 µM
[8] = second compound 0.316 µM, first compound 0.1 µM
[9] = second compound 0.316 µM, first compound 0.316 µM
[10] = second compound 0.316 µM, first compound 1 µM
[11] = second compound 0.316 µM, first compound 3.16 µM
[12] = second compound 0.316 µM, first compound 10 µM
[13] = second compound 1 µM, first compound 0.0316 µM
[14] = second compound 1 µM, first compound 0.1 µM
[15] = second compound 1 µM, first compound 0.316 µM
[16] = second compound 1 µM, first compound 1 µM
[17] = second compound 1 µM, first compound 3.16 µM
[18] = second compound 1 µM, first compound 10 µM
[19] = second compound 3.16 µM, first compound 0.0316 µM
[20] = second compound 3.16 µM, first compound 0.1 µM
[21] = second compound 3.16 µM, first compound 0.316 µM
[22] = second compound 3.16 µM, first compound 1 µM
[23] = second compound 3.16 µM, first compound 3.16 µM
[24] = second compound 3.16 µM, first compound 10 µM
[25] = second compound 10 µM, first compound 0.0316 µM
[26] = second compound 10 µM, first compound 0.1 µM
[27] = second compound 10 µM, first compound 0.316 µM
[28] = second compound 10 µM, first compound 1 µM
[29] = second compound 10 µM, first compound 3.16 µM
[30] = second compound 10 µM, first compound 10 µM
[31] = second compound 0.1 µM, first compound 0.00949 µM
[32] = second compound 0.1 µM, first compound 0.03 µM
[33] = second compound 0.1 µM, first compound 0.0949 µM
[34] = second compound 0.1 µM, first compound 0.3 µM
[35] = second compound 0.316 µM, first compound 0.00949 µM
[36] = second compound 0.316 µM, first compound 0.03 µM
[37] = second compound 0.316 µM, first compound 0.0949 µM
[38] = second compound 0.316 µM, first compound 0.3 µM
[39] = second compound 1 µM, first compound 0.00949 µM
[40] = second compound 1 µM, first compound 0.03 µM
[41] = second compound 1 µM, first compound 0.0949 µM
[42] = second compound 1 µM, first compound 0.3 µM
[43] = second compound 3.16 µM, first compound 0.00949 µM
[44] = second compound 3.16 µM, first compound 0.03 µM
[45] = second compound 3.16 µM, first compound 0.0949 µM
[46] = second compound 3.16 µM, first compound 0.3 µM
[47] = second compound 10 µM, first compound 0.00949 µM
[48] = second compound 10 µM, first compound 0.03 µM
[49] = second compound 10 µM, first compound 0.0949 µM
[50] = second compound 10 µM, first compound 0.3 µM
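Note: spheroids exposed to compounds for 7 days before readout.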
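Throughout, for viability, T/C: CTG3D luminescence normalised so that 100% = DMSO vehicle control.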

C=CC(=O)N1CCN(c2nc(=O)n(-c3c(C)ccnc3C(C)C)c3nc(-c4c(O)cccc4F)c(F)cc23)C(C)C1 (stereo not given) + CC(C)NCC(C(=O)N1CCN(c2ncnc3c2C(C)CC3O)CC1)c1ccc(Cl)cc1
pIC50 (second compound 0.1 µM): > 7.50 | pIC50 (second compound 0.316 µM): > 7.50 | pIC50 (second compound 1 µM): > 7.50 | pIC50 (second compound 3.16 µM): > 7.50 | pIC50 (second compound 10 µM): > 7.50 | viability, T/C [1]: 47.1% | viability, T/C [2]: 46.7% | viability, T/C [3]: 28.9% | viability, T/C [4]: 36.3% | viability, T/C [5]: 22.1% | viability, T/C [6]: 10.7% | viability, T/C [7]: 28.2% | viability, T/C [8]: 30.3% | viability, T/C [9]: 21.2% | viability, T/C [10]: 24.9% | viability, T/C [11]: 21.9% | viability, T/C [12]: 13.8% | viability, T/C [13]: 22.9% | viability, T/C [14]: 25% | viability, T/C [15]: 21.5% | viability, T/C [16]: 28.2% | viability, T/C [17]: 19.3% | viability, T/C [18]: 7.88% | viability, T/C [19]: 21.7% | viability, T/C [20]: 18.3% | viability, T/C [21]: 22.9% | viability, T/C [22]: 19.7% | viability, T/C [23]: 11.9% | viability, T/C [24]: 5.86% | viability, T/C [25]: 15.2% | viability, T/C [26]: 12.3% | viability, T/C [27]: 12.2% | viability, T/C [28]: 12.5% | viability, T/C [29]: 8.32% | viability, T/C [30]: 3.28%

CC(=O)c1c(C)c2cnc(Nc3ccc(N4CCNCC4)cn3)nc2n(C2CCCC2)c1=O + CC(C)NCC(C(=O)N1CCN(c2ncnc3c2C(C)CC3O)CC1)c1ccc(Cl)cc1
pIC50 (second compound 0.1 µM): < 6.52 | pIC50 (second compound 0.316 µM): > 9.02 | pIC50 (second compound 1 µM): > 9.02 | pIC50 (second compound 3.16 µM): > 9.02 | pIC50 (second compound 10 µM): > 9.02 | viability, T/C (second compound 0.1 µM, first compound 0.000949 µM): 62.6% | viability, T/C (second compound 0.1 µM, first compound 0.003 µM): 64.7% | viability, T/C [31]: 51.6% | viability, T/C [32]: 53.5% | viability, T/C [33]: 71.8% | viability, T/C [34]: 68.5% | viability, T/C (second compound 0.316 µM, first compound 0.000949 µM): 39.1% | viability, T/C (second compound 0.316 µM, first compound 0.003 µM): 33.9% | viability, T/C [35]: 32.4% | viability, T/C [36]: 28.6% | viability, T/C [37]: 28.4% | viability, T/C [38]: 34.1% | viability, T/C (second compound 1 µM, first compound 0.000949 µM): 26.6% | viability, T/C (second compound 1 µM, first compound 0.003 µM): 29.3% | viability, T/C [39]: 24.1% | viability, T/C [40]: 34.8% | viability, T/C [41]: 37.3% | viability, T/C [42]: 22.9% | viability, T/C (second compound 3.16 µM, first compound 0.000949 µM): 29.4% | viability, T/C (second compound 3.16 µM, first compound 0.003 µM): 26.1% | viability, T/C [43]: 26.2% | viability, T/C [44]: 26.6% | viability, T/C [45]: 18% | viability, T/C [46]: 21.7% | viability, T/C (second compound 10 µM, first compound 0.000949 µM): 16.4% | viability, T/C (second compound 10 µM, first compound 0.003 µM): 15.8% | viability, T/C [47]: 13.7% | viability, T/C [48]: 13.8% | viability, T/C [49]: 11.3% | viability, T/C [50]: 11.5%

CC(C)(C)c1cnc(CSc2cnc(NC(=O)C3CCNCC3)s2)o1 + CC(C)NCC(C(=O)N1CCN(c2ncnc3c2C(C)CC3O)CC1)c1ccc(Cl)cc1
pIC50 (second compound 0.1 µM): 7.52 | pIC50 (second compound 0.316 µM): > 8.02 | pIC50 (second compound 1 µM): > 8.02 | pIC50 (second compound 3.16 µM): > 8.02 | pIC50 (second compound 10 µM): > 8.02 | viability, T/C [31]: 88.9% | viability, T/C [32]: 50.1% | viability, T/C [33]: 7.88% | viability, T/C [34]: 0.63% | viability, T/C (second compound 0.1 µM, first compound 0.949 µM): 0.78% | viability, T/C (second compound 0.1 µM, first compound 3 µM): 0.94% | viability, T/C [35]: 34.4% | viability, T/C [36]: 40.4% | viability, T/C [37]: 9.45% | viability, T/C [38]: 0.23% | viability, T/C (second compound 0.316 µM, first compound 0.949 µM): 0.27% | viability, T/C (second compound 0.316 µM, first compound 3 µM): 0.95% | viability, T/C [39]: 27% | viability, T/C [40]: 28.8% | viability, T/C [41]: 10.8% | viability, T/C [42]: 0.59% | viability, T/C (second compound 1 µM, first compound 0.949 µM): 0.34% | viability, T/C (second compound 1 µM, first compound 3 µM): 0.55% | viability, T/C [43]: 27.4% | viability, T/C [44]: 27.7% | viability, T/C [45]: 9.06% | viability, T/C [46]: 0.29% | viability, T/C (second compound 3.16 µM, first compound 0.949 µM): 0.31% | viability, T/C (second compound 3.16 µM, first compound 3 µM): 0.87% | viability, T/C [47]: 14.1% | viability, T/C [48]: 12.7% | viability, T/C [49]: 3.48% | viability, T/C [50]: 1.09% | viability, T/C (second compound 10 µM, first compound 0.949 µM): 0.27% | viability, T/C (second compound 10 µM, first compound 3 µM): 1.61%

Cn1nccc1Nc1nccc(-c2ccn(C(CO)c3ccc(Cl)c(F)c3)c(=O)c2)n1 (stereo not given) + CC(C)NCC(C(=O)N1CCN(c2ncnc3c2C(C)CC3O)CC1)c1ccc(Cl)cc1
pIC50 (second compound 0.1 µM): 6.25 | pIC50 (second compound 0.316 µM): > 7.50 | pIC50 (second compound 1 µM): > 7.50 | pIC50 (second compound 3.16 µM): > 7.50 | pIC50 (second compound 10 µM): > 7.50 | viability, T/C [1]: 65.5% | viability, T/C [2]: 66.5% | viability, T/C [3]: 57.9% | viability, T/C [4]: 41.6% | viability, T/C [5]: 44.1% | viability, T/C [6]: 35.8% | viability, T/C [7]: 45.6% | viability, T/C [8]: 40.6% | viability, T/C [9]: 24.3% | viability, T/C [10]: 14.3% | viability, T/C [11]: 16% | viability, T/C [12]: 17.1% | viability, T/C [13]: 28.2% | viability, T/C [14]: 23.2% | viability, T/C [15]: 18% | viability, T/C [16]: 13.1% | viability, T/C [17]: 9.8% | viability, T/C [18]: 4.51% | viability, T/C [19]: 22.9% | viability, T/C [20]: 16.7% | viability, T/C [21]: 11.5% | viability, T/C [22]: 8.53% | viability, T/C [23]: 4.72% | viability, T/C [24]: 3.12% | viability, T/C [25]: 11.3% | viability, T/C [26]: 7.13% | viability, T/C [27]: 5.99% | viability, T/C [28]: 5.42% | viability, T/C [29]: 3.44% | viability, T/C [30]: 1.71%
